Patent publication EP0008186A1, “Cyclic diamides, a process for their preparation and their pharmaceutical compositions” (BEECHAM GROUP PLC, priority 1978, dated 1980)

Assays:
Format in all cases: in vivo
[1] = system: anaesthetised, perfused rat stomach preparation; assay: Inhibition of pentagastrin-stimulated gastric acid secretion (Ghosh and Schild preparation); conditions: i.v.
Procedure: The compounds were examined for their ability to inhibit pentagastrin-stimulated gastric acid secretion in the anaesthetised, perfused rat stomach preparation (Ghosh and Schild preparation). The compounds were administered intravenously.

rat = assay: Anti-ulcer activity: inhibition of indomethacin induced gastric damage; conditions: gastric damage score 1-9; 50mg/kg orally 30 minutes prior to 15mg/kg indomethacin subcutaneously; sacrificed 4 hours later; vehicle 4.57 ± 0.69; p <0.01 (Mann Witney)
Procedure: Anti-ulcer activity was assessed by the inhibition of indomethacin induced gastric damage in the rat according to the method of Eleghe (1974) Israeli J. Med. Sci. 10 1451. Rats were starvedovernight given 15mg/kg indomethacin subcutaneously and sacrificed 4 hours later. Stomachs were reflated with n. saline, cut along the greater curvature pinned out and scored for gastric damage by the following system: • Score 1 - 3 - according to degree of erythema and slight haemorrhage. • Score 4 - 6 - according to degree of mucosal erosion. • Score 7 - 9 - according to depth of gastric damage.
Groups of 7 rats were used for each treatment and the test compound or vehicle were administered 30 minutes prior to giving the indomethacin. Dose of test compound was 50mg/kg orally and control groups receiving vehicle only were set up simultaneously. Mean values for each treatment were obtained using the above scoring system and the Mann Witney test applied for significance of difference between the values obtained with the treatments.

conscious guinea pigs = assay: Herxheimer test: protection against histamine aerosol induced bronchoconstriction; conditions: administered by aerosol or by oral administration, mean of several experiments
Procedure: • 1. The compounds were examined for their ability to inhibit 5-hydroxytryptamine or histamine induced bronchoconstriction in the anaesthetised, artifically respired guinea pig (Konzett-Rossler preparation). The compounds were administered intravenously. The results are shown in Table A. [formula] • 2. Compound 3 was also examined for its ability to protect conscious guinea pigs against bronchoconstriction induced by an histamine aerosol (Herxheimer test). In these experiments the compound was administered by aerosol or by oral administration. The results are the mean of several experiments. Compound 3 was active at 10 mg/kg.

SMILES	inhibited gastric acid secretion at [1] [mg/kg]	Test Mean Score ± S.E. of Mean (rat)	active at (protection against bronchoconstriction induced by an histamine aerosol) (conscious guinea pigs) [mg/kg]
COC(=O)CCCCCCC1C(=O)N[C@@H](C)C(=O)N1CCC(C)(O)C1CCCCC1 (stereo partly shown) [Compound 9]	0.25		
CCCCC(C)C(C)(O)CCN1C(=O)CN(C)C(=O)C1CCCCCCC(=O)OC (stereo not shown) [Compound 3]	0.2	0.71 ± 0.42 (p <0.01)	10
